Laboratory results from ChEMBL document CHEMBL1201862, “PubChem BioAssay data set” (2004).
Active and inactive are the calls of the source.

Legend:
[1] = intracellular Trypanosoma cruzi inhibitors in host cells – cell-based, plate reader, cherry-pick samples, set 3, dose response (AID 651818); format: functional;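 further: compounds incubated with infected cells for about four days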
[2] = target: T1, Short transient receptor potential channel 4 (Mus musculus, UniProt Q9QUQ5); assay: block of DAMGO-driven TRPC4 calcium entry – cell-based, HEK293 TRPC4/mu-opioid, Fluo-4 calcium, dose response (AID 434942); format: functional;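 further: potency of inhibitors blocking the TRPC4 calcium response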
T1 sequence (Q9QUQ5 whole entry): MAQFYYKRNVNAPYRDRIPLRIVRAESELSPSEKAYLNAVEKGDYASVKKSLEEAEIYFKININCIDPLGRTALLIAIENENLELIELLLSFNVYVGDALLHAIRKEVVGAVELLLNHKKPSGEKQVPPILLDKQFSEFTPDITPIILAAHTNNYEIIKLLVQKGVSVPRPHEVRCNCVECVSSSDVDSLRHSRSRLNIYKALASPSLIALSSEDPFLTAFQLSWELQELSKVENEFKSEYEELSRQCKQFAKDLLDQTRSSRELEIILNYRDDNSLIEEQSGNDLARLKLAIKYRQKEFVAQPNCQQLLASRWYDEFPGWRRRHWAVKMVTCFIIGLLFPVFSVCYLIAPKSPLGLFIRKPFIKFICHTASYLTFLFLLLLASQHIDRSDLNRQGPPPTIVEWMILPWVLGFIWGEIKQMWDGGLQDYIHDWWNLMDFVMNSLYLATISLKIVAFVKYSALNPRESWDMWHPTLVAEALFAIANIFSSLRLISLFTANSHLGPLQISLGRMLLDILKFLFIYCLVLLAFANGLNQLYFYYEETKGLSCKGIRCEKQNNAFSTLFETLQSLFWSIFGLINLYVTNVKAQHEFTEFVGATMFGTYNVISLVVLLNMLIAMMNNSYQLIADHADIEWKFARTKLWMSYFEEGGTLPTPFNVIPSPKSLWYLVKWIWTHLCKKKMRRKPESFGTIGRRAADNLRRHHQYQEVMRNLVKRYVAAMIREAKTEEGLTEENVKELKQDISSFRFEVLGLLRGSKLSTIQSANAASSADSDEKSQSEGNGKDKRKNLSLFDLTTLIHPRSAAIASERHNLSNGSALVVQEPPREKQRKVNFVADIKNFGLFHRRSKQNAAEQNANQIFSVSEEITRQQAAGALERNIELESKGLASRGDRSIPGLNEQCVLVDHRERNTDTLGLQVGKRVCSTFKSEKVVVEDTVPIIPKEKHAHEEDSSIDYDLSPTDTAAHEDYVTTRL

Protein skinhead-1 = target: T2, Protein skinhead-1 (Caenorhabditis elegans, UniProt P34707); format: functional
T2 sequence (P34707 whole entry): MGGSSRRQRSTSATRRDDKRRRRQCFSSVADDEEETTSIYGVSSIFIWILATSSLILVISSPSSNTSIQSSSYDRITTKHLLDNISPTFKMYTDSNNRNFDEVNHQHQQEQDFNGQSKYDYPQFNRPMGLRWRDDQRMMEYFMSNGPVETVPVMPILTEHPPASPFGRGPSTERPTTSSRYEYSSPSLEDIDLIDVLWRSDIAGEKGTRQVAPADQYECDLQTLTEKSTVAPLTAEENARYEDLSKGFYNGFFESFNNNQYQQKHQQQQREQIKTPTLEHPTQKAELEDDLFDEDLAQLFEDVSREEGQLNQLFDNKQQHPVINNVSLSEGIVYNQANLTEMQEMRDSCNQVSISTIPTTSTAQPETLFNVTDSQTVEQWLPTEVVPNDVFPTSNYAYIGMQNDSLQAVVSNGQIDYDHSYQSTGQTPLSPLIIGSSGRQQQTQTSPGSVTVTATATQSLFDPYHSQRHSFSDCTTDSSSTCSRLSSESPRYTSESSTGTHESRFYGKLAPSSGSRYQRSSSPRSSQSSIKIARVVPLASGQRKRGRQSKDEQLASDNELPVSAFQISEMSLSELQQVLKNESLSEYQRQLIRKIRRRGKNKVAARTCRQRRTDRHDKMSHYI

[3] = target: T3, Long-chain-fatty-acid--AMP ligase FadD28 (Mycobacterium tuberculosis, UniProt P9WQ59); assay: Fluorescence polarization aasay to screen for inhibitors that compete for the binding of FadD28 to a bisubstrate Measured in Biochemical System Using Plate Reader - 2147-01_Inhibitor_Dose_CherryPick_Activity.; format: functional, Mycobacterium tuberculosis H37Rv
T3 sequence (P9WQ59 whole entry): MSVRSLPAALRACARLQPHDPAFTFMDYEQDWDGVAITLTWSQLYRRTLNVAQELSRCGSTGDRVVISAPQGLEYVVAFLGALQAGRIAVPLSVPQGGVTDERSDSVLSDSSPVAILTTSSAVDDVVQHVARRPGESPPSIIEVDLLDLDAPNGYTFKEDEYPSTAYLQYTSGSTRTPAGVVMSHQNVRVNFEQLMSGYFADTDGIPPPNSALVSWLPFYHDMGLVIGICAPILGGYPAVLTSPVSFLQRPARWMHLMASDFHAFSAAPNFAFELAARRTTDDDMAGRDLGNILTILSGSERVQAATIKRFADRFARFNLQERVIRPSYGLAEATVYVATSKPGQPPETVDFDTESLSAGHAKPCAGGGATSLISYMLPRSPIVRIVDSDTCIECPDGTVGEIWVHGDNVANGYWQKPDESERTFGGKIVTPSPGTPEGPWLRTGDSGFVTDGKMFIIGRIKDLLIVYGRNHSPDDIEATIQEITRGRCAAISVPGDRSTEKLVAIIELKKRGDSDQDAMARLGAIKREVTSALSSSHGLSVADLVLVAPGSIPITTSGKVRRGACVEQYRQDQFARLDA

[4] = Luminescence Cell-Based Dose Confirmation HTS to Identify Activators of 5'UTR Stem-Loop Driven Alpha-Synuclein mRNA Translation in H4 Neuroglioblastoma Cells. [Related pubchem assays: 1829 (Project Summary), 1814 (Primary HTS)]; format: functional
H4 = assay: Luminescence Cell-Based Dose Response HTS to Identify Activators of 5'UTR Stem-Loop Driven Prion Protein mRNA Translation in H4 Neuroglioblastoma Cells. [Related pubchem assays: 1829 (Project Summary), 1814 (Primary HTS)]; format: functional; settings: Homo sapiens
[5] = Luminescence Cell-Based Dose Response HTS to Identify Activators of Luciferase Translation or Activity in H4 […] Cells. [Related pubchem assays: 1829 (Project Summary), 1814 (Primary HTS)]; format: functional
[6] = blockers of HIV-1 envelope-mediated cell-cell fusion – cherry-pick, dose response (AID 652057); format: functional, cell-based
[7] = HIV-1 AD8 envelope cell-cell fusion blockers – cherry-pick, dose response (AID 652062); format: functional, cell-based;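 further: luciferase signal from cell-cell fusion driven by HIV-1 clade B AD8 Env; potency is for inhibitors of fusion seen as a drop in luminescence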
Fatty acid synthase = Fatty acid synthase (Homo sapiens, UniProt P49327); assay: inhibition of human FAS-TE enzyme activity – biochemical, kinetic fluorescence intensity, dose response (AID 624326); format: functional;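 further: rate of fluorescence rise from hydrolysis of a fluorogenic O-methyl fluorescein ester substrate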
INS1 = assay: INS-1E survival protection against cytokine death – cell-based, luminescence, retest, dose response (AID 449756); format: functional; settings: Rattus norvegicus;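 further: cell death triggered by IL-1 beta plus TNF-alpha plus IFN-gamma mixture; protective hits raise ATP signal compared with cytokine alone wells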
Nonstructural protein 1 = Nonstructural protein 1 (Influenza A virus, UniProt Q194T2); format: functional, Influenza A virus (A/California/07/2009(H1N1))
[8] = fluconazole-exposed Candida albicans growth modulators – fluorescence, retest, confirmation (AID 2467); format: functional, cell-based
[9] = target: FAD-linked sulfhydryl oxidase ALR (Homo sapiens, UniProt P55789); assay: ALR-catalysed DTT oxidation blockers – biochemical, H2O2 detection, luminescence, cherry-pick, dose response (AID 493248)
[10] = target: DNA dC->dU-editing enzyme APOBEC-3G (Homo sapiens, UniProt Q9HC16); assay: Dose Response confirmation of small molecule APOBEC3G DNA Deaminase Inhibitors via a fluorescence-based single-stranded DNA deaminase assay. [Related pubchem assays (depositor defined):AID493012, AID493028]; format: functional
[11] = NIH-3T3 fibroblast cytotoxicity, dose response, cytotoxicity control, cell-based, fluorescence, Alamar Blue, secondary assay (AID 2327); format: functional;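 further: NIH-3T3 mouse fibroblasts cultured with fluconazole at 8 µg/mL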
Large T antigen = Large T antigen (Simian virus 40, UniProt P03070); format: functional, Betapolyomavirus macacae;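 further: Confirmatory-stage PubChem screen for compounds that inhibit SV40 T antigen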
[12] = target: T4, Polyadenylate-binding protein 1 (Homo sapiens, UniProt P11940); assay: MLLE binding blockers, Cy5 peptide tracer – biochemical, fluorescence polarization, Cy5-PAM2 peptide, secondary, miRNA deadenylation inhibitor project, dose response (AID 602260); format: functional; settings: read-out: IC50_Mean
[13] = target: Induced myeloid leukemia cell differentiation protein Mcl-1 (Homo sapiens, UniProt Q07820); format: functional
[14] = target: T4, Polyadenylate-binding protein 1; assay: MLLE domain peptide-binding blockers, IC50 – biochemical, fluorescence polarization, FITC-PAM2 peptide, dose response (AID 602259); format: functional; settings: read-out: IC50_Mean
[15] = DRD fibroblast viability loss – cell-based, non-viral oncogenic, luminescence, dose response (AID 1934); format: functional; settings: Homo sapiens
BJ [16] = assay: BJ-TERT fibroblast viability loss – cell-based, RAS-independent, luminescence, dose response (AID 1933); format: functional; settings: Homo sapiens
BJ [17] = assay: cells; format: functional, cell-based; settings: Homo sapiens
BJ [18] = assay: BJ-TERT-LT-ST fibroblast viability loss – cell-based, RAS-independent, luminescence, dose response (AID 1935); format: functional; settings: Homo sapiens;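 further: BJ fibroblasts immortalized with TERT plus LT and ST oncogenes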

T4 sequence (P11940 whole entry): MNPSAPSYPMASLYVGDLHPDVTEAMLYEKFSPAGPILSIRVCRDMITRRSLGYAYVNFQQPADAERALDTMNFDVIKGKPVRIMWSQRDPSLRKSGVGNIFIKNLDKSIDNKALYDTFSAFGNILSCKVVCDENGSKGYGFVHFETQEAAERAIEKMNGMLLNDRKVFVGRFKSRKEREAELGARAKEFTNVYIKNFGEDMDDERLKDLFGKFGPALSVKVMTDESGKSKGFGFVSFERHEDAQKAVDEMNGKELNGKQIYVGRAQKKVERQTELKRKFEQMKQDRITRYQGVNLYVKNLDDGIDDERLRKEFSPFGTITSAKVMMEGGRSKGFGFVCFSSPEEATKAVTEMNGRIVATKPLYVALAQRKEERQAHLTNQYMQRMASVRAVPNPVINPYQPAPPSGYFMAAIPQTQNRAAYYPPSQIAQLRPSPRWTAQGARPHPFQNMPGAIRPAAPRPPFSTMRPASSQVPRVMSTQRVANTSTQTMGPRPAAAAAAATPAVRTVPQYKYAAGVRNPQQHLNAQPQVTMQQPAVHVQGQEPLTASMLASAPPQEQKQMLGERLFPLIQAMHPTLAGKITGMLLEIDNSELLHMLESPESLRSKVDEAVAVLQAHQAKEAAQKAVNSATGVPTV
Sequence of Large T antigen (P03070 whole entry): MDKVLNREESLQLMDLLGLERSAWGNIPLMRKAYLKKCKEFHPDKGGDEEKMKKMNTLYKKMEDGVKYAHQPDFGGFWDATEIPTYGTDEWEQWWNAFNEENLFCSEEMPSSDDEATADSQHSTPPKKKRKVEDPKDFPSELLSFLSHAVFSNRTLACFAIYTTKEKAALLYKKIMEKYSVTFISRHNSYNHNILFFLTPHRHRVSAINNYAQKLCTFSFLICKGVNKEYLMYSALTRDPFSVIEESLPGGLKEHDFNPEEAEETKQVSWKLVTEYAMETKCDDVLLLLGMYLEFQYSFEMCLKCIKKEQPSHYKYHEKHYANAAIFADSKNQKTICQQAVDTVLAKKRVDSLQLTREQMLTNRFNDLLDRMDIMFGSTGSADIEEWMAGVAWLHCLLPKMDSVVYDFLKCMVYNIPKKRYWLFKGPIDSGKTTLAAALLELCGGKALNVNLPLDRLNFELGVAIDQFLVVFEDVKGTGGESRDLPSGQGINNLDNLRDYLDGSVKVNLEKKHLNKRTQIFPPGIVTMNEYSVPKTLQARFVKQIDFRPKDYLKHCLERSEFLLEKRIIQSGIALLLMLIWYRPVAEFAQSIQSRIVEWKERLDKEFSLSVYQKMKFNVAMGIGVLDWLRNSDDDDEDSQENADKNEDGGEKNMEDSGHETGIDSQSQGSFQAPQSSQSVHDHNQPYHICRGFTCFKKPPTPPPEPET
Sequence of Induced myeloid leukemia cell differentiation protein Mcl-1 (Q07820 whole entry, the tested form may be a part): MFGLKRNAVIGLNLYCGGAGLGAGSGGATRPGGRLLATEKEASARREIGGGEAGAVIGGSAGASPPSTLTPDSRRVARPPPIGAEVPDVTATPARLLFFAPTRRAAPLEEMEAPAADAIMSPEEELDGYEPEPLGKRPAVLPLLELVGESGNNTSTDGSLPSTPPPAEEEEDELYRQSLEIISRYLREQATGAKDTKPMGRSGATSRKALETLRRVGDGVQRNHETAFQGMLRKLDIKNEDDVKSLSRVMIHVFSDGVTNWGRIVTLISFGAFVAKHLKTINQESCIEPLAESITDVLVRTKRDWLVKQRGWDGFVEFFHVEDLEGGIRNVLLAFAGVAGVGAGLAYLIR
Sequence of DNA dC->dU-editing enzyme APOBEC-3G (Q9HC16 whole entry): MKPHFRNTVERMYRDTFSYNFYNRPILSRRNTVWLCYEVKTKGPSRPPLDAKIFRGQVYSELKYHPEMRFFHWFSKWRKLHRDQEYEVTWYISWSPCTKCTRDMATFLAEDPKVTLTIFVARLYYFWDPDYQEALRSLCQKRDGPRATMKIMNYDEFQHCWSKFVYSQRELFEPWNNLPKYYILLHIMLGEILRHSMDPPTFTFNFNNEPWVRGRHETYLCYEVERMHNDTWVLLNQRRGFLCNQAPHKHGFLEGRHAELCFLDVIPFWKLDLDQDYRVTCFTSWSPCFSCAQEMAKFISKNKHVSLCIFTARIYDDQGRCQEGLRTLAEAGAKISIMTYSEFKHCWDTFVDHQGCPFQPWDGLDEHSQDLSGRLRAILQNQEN
Sequence of FAD-linked sulfhydryl oxidase ALR (P55789 whole entry): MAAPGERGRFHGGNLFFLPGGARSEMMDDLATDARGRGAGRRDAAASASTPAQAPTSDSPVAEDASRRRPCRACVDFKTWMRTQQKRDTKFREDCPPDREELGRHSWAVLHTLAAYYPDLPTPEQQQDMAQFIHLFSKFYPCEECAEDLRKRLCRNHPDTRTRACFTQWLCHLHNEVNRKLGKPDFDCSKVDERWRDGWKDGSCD
Sequence of Fatty acid synthase (P49327 whole entry): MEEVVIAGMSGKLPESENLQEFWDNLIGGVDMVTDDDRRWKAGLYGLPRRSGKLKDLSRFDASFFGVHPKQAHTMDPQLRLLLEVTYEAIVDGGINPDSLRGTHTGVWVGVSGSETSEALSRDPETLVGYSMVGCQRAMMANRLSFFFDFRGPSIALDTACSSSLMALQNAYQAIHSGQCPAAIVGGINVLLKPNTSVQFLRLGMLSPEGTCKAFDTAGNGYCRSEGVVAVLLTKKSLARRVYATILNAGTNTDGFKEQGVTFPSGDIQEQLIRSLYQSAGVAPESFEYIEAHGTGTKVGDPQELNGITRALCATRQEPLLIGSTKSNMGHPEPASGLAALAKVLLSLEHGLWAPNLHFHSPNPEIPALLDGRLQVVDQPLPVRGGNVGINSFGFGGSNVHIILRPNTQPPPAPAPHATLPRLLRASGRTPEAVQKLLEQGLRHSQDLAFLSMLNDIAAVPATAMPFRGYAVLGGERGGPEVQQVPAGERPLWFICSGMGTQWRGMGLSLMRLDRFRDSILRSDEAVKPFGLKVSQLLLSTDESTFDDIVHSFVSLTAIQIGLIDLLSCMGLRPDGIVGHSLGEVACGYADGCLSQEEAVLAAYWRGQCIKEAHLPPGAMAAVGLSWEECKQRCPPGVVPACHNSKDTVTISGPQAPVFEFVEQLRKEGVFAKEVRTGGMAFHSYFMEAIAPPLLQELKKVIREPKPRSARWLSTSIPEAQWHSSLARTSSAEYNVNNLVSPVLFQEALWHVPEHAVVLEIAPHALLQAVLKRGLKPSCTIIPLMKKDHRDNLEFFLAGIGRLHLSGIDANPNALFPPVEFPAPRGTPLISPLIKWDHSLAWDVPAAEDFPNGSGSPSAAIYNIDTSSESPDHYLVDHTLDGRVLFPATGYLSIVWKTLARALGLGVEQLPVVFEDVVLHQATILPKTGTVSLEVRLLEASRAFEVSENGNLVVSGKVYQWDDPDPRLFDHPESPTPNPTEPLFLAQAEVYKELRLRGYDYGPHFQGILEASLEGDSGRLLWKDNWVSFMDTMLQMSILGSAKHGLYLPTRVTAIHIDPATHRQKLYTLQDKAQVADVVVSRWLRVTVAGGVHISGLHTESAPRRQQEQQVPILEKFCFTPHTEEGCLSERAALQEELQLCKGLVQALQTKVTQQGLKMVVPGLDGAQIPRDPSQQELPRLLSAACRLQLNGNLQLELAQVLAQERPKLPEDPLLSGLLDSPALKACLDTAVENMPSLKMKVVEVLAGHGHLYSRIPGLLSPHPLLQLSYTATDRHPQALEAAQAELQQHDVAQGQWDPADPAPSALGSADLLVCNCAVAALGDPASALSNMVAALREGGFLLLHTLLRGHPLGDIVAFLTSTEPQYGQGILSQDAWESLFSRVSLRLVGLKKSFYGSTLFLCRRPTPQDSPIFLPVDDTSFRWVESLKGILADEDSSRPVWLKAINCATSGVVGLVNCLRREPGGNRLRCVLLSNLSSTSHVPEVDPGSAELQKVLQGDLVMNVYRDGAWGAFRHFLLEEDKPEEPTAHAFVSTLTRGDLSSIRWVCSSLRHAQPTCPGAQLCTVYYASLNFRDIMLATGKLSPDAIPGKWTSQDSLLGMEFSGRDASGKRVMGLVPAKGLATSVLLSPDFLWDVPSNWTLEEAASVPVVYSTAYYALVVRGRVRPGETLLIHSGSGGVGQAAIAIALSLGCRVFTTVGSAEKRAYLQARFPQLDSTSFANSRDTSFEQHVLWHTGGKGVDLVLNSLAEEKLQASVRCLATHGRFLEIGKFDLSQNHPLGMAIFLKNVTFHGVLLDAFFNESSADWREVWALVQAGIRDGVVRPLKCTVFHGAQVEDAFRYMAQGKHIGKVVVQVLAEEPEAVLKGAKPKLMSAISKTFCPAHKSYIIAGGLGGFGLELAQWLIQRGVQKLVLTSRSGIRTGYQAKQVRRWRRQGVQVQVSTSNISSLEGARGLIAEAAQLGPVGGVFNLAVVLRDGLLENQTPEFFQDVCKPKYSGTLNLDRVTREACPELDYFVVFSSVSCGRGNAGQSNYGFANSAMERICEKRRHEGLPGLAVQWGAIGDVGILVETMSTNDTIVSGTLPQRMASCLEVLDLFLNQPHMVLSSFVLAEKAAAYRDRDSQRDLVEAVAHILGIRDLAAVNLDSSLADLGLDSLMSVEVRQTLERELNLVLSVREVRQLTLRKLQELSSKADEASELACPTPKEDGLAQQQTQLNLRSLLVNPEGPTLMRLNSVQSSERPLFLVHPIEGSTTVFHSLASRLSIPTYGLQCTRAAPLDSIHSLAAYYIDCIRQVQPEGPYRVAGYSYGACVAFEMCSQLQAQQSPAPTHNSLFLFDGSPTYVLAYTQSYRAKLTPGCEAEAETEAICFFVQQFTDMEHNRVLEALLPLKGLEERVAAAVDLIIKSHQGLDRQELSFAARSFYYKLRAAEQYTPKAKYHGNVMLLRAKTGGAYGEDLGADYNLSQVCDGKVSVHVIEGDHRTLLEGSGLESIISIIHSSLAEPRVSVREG
Sequence of Nonstructural protein 1 (Q194T2 whole entry): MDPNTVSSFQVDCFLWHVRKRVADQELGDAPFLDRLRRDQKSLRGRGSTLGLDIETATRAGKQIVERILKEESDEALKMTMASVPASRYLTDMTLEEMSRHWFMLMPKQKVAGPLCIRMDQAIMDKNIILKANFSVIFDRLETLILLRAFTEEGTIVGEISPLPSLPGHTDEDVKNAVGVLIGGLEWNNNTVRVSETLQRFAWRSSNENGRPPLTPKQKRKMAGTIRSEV

SMILES: C[C@@H]1CN([C@H](C)CO)C(=O)Cc2cc(NS(=O)(=O)c3ccc(Cl)cc3)ccc2O[C@@H]1CN(C)Cc1ccc(Cl)c(Cl)c1
- AC50 [1]: 3.44 µM (active)

SMILES: CC(NC(=O)c1ccco1)C(c1cccs1)N1CCN(c2ccccc2)CC1 (centres undefined)
- EC50 [2]: 0.376 µM (active)

SMILES: COC(=O)c1cn(NC(=O)C2COc3ccccc3O2)c(=O)c2ccccc12 (centres undefined)
- IC50 (Protein skinhead-1): > 100 µM (inactive)

SMILES: C[C@H]1CN([C@@H](C)CO)C(=O)c2cc(NC(=O)Nc3ccc(C(F)(F)F)cc3)ccc2O[C@H]1CN(C)Cc1ccc2c(c1)OCO2
- AC50 [1]: 4.18 µM (active)

SMILES: CCc1nc2ccc(C(=O)NCCCn3ccnc3)cn2c1N(C)Cc1cc2ccccc2s1
- AC50 [3]: 74.3 µM (active)

SMILES: CSC(=NCCCN1CCOCC1)NS(=O)(=O)c1cccs1
- IC50 (Protein skinhead-1): > 100 µM (inactive)

SMILES: Cc1ccc(C(C(=O)NC(C)(C)C)N(C(=O)CCC(=O)Nc2ccccn2)c2ccccc2F)cc1 (centres undefined)
- EC50 [2]: 2.99 µM (active)

SMILES: CCc1nc2ccccc2n1CC(=O)N(C(C)CC)C1CCS(=O)(=O)C1 (centres undefined)
- IC50 (Protein skinhead-1): > 100 µM (inactive)

SMILES: O=C(CSc1nc(O)c(C2CCCCC2)c(O)n1)NCC1CCCO1 (centres undefined)
- IC50 (Protein skinhead-1): > 100 µM (inactive)

SMILES: Cc1cccc(S(=O)(=O)N/N=c2\sc3ccccc3n2C)c1
- EC50 [4]: 5.13 µM (active)
- EC50 (H4): 23.2 µM (active)
- EC50 [5]: 10.1 µM (active)

SMILES: Cn1c(-c2ccc(F)cc2)cnc1NCc1ccc(F)cc1F
- EC50 [2]: 2.66 µM (active)

SMILES: COC(=O)CSc1nnc(SCc2ccc(OC)cc2)s1
- IC50 (Protein skinhead-1): > 100 µM (inactive)

SMILES: C[C@H]1CN([C@@H](C)CO)C(=O)Cc2cc(NC(=O)Cc3ccccc3)ccc2O[C@H]1CN(C)Cc1ccc(-c2ccccc2)cc1
- AC50 [1]: 2.79 µM (active)

SMILES: CCC(c1nnnn1CCOC)N1CCN(Cc2ccccc2)CC1 (centres undefined)
- IC50 (Protein skinhead-1): > 100 µM (inactive)

SMILES: CC(C)NC(=O)Nc1ccc2c(c1)C(=O)N([C@H](C)CO)C[C@@H](C)[C@@H](CN(C)C(=O)CCC(F)(F)F)OCCCC[C@@H](C)O2
- AC50 [6]: < 0.26 µM (active)
- AC50 [7]: 1.02 µM (active)

SMILES: CCn1c(=O)c([N+](=O)[O-])c(N2CCN(Cc3ccc4c(c3)OCO4)CC2)c2ccccc21
- IC50 (Fatty acid synthase): 1.8 µM (active)
- AC50 (INS1): 26.1 µM (active)

SMILES: CC1=NN(c2ccccc2)C(=O)/C1=C/c1ccc[nH]1
- IC50 (Nonstructural protein 1): 33 µM (active)

SMILES: C[C@@H]1CN([C@H](C)CO)C(=O)c2cc(NC(=O)Nc3cccc4ccccc34)ccc2O[C@H]1CN(C)Cc1ccc(-c2ccccc2)cc1
- AC50 [1]: 2.17 µM (active)

SMILES: O=C(Nc1cccc2ccccc12)c1onc2c1CCCC2
- EC50 [4]: 0.192 µM (active)
- EC50 (H4): > 120 µM (not active)
- EC50 [5]: 78.7 µM (active)

SMILES: Oc1ccc(/C=N/n2c(S)nnc2COc2ccccc2)cc1O
- EC50 [8]: > 38 µM (not active)
- AC50 [9]: 0.005 µM (active)
- IC50 [10]: 2.1 µM (active)
- EC50 [11]: 24.6 µM (active)
- IC50 (Large T antigen): 6.29 µM (active)

SMILES: CC(C)CN=C(S)NC1CC2CCCC(C1)N2C1CCCCC1 (centres undefined)
- EC50 [4]: > 120 µM (not active)
- EC50 (H4): 44.3 µM (active)
- EC50 [5]: > 120 µM (not active)

SMILES: O=C(Nc1ccc2c(c1)OCO2)c1ccc(Br)o1
- EC50 [4]: 0.165 µM (active)
- EC50 (H4): > 120 µM (not active)
- EC50 [5]: > 120 µM (not active)

SMILES: COc1ccc(C(=O)NCCc2c[nH]c3ccccc23)cc1S(=O)(=O)N1CCCCC1C (centres undefined)
- AC50 [3]: 2.97 µM (active)

SMILES: C[C@@H]1CN([C@H](C)CO)C(=O)c2cccc(NS(=O)(=O)c3cccs3)c2O[C@@H]1CN(C)C(=O)Nc1ccc(C(F)(F)F)cc1
- AC50 [1]: 8.07 µM (active)

SMILES: COc1ccc(S(=O)(=O)Nc2ccc3c(c2)CC(=O)N([C@@H](C)CO)C[C@H](C)[C@@H](CN(C)Cc2ccc(-c4ccccc4)cc2)O3)cc1
- AC50 [1]: 2.07 µM (active)

SMILES: CC(Sc1nnc(-c2cccnc2)n1-c1ccccc1)C(=O)NCc1ccc2c(c1)OCO2 (centres undefined)
- EC50 [4]: 9.46 µM (active)
- EC50 (H4): 38 µM (active)
- EC50 [5]: 16.5 µM (active)

SMILES: CNc1sc(C(=O)c2ccccc2F)c(N)c1-c1nc2ccccc2s1
- IC50 [12]: > 66 µM (inactive)
- IC50 [13]: 4.92 µM (active)
- IC50 [14]: 49.5 µM (inactive)

SMILES: O=C(Cn1c2ccccc2c(=O)c2cc([N+](=O)[O-])ccc21)Nc1ccccc1Cl
- EC50 [15]: > 150 µM (inconclusive)
- EC50 (BJ [16]): > 150 µM (not active)
- EC50 (BJ [17]): > 150 µM (not active)
- EC50 (BJ [18]): > 75 µM (inconclusive)
